# Results from PubChem BioAssay AID330 (DTP/NCI, 2004).
# Values joined by “and” are separate entries in the source; they are usually repeats but may differ in a detail not shown here. Identical values can stand only once. Toxic doses and inconclusive results are not listed.
# Test system: P388 leukemia ip, CD2F1 mice, survival T/C
# Test: NCI In Vivo Anticancer Drug Screen. Data for tumor model P388 Leukemia (intraperitoneal) in CD2F1 (CDF1) mice
# Details: endpoint: median survival time, higher = longer survival
# In short: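 Mice carrying the transplanted tumor received test compound or vehicle. Survival was recorded in each group, and the value is the treated-group measurement divided by that of the vehicle-treated control group.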
# [1] = dose: 50.0 mg/kg/injection, schedule: Q01DX009 (ip), vehicle: Klucel (hydroxypropylcellulose) (HPC)
# [2] = dose: 100.0 mg/kg/injection, schedule: Q01DX009 (ip), vehicle: Klucel (hydroxypropylcellulose) (HPC)
# [3] = dose: 200.0 mg/kg/injection, schedule: Q01DX009 (ip), vehicle: Klucel (hydroxypropylcellulose) (HPC)
# [4] = dose: 200.0 mg/kg/injection, schedule: Q01DX009 (ip), vehicle: saline with Tween-80
# [5] = dose: 50.0 mg/kg/injection, schedule: Q01DX009 (ip), vehicle: saline with Tween-80
# [6] = dose: 50.0 mg/kg/injection, schedule: Q01DX009 (ip), vehicle: saline
# [7] = dose: 100.0 mg/kg/injection, schedule: Q01DX009 (ip), vehicle: saline with Tween-80
# [8] = dose: 100.0 mg/kg/injection, schedule: Q01DX009 (ip), vehicle: saline
# [9] = dose: 200.0 mg/kg/injection, schedule: Q01DX009 (ip), vehicle: saline
# [10] = dose: 50.0 mg/kg/injection, schedule: Q01DX005 (ip), vehicle: saline with Tween-80
# [11] = dose: 200.0 mg/kg/injection, schedule: Q01DX005 (ip), vehicle: saline with Tween-80
# [12] = dose: 25.0 mg/kg/injection, schedule: Q01DX009 (ip), vehicle: Klucel (hydroxypropylcellulose) (HPC)
# [13] = dose: 25.0 mg/kg/injection, schedule: Q01DX009 (ip), vehicle: saline with Tween-80
compound,measurement,setting,value
CCN(CC)CC.[CH-]1CCCCC1.[CH-]1CCCCC1.[CH-]1CCCCC1.[Cl-].[Cl-].[Sn+4],T/C,"dose: 3.12 mg/kg/injection, schedule: Q01DX005 (ip), vehicle: saline with Tween-80",107 % of control
same,T/C,"dose: 6.25 mg/kg/injection, schedule: Q01DX005 (ip), vehicle: saline with Tween-80",110 % of control
CC(C)=Cc1cc(-c2cc(C=C(C)C)[nH]n2)n[nH]1,T/C,"dose: 60.0 mg/kg/injection, schedule: Q01DX005 (ip), vehicle: saline with Tween-80",97 % of control
same,T/C,"dose: 120.0 mg/kg/injection, schedule: Q01DX005 (ip), vehicle: saline with Tween-80",100 % of control
same,T/C,"dose: 240.0 mg/kg/injection, schedule: Q01DX005 (ip), vehicle: saline with Tween-80",102 % of control
CCCCCCCCCCCCCCCCN1CCS(=O)(=O)CC1,T/C,[1],108 % of control
same,T/C,[2],100 % of control and 98 % of control
same,T/C,[3],101 % of control and 88 % of control
C=C1C(=O)OC2/C=C(\CO)CC/C=C(/C=O)CC(O)C12 (stereo not given),T/C,"dose: 1.89 mg/kg/injection, schedule: Q01DX005 (ip), vehicle: saline",101 % of control
same,T/C,"dose: 3.75 mg/kg/injection, schedule: Q01DX005 (ip), vehicle: saline",101 % of control
same,T/C,"dose: 7.5 mg/kg/injection, schedule: Q01DX005 (ip), vehicle: saline",99 % of control
same,T/C,"dose: 15.0 mg/kg/injection, schedule: Q01DX005 (ip), vehicle: saline",96 % of control
COP(=O)(OC)C1(C)CO1 (stereo not given),T/C,[1],87 % of control
same,T/C,[2],91 % of control
same,T/C,[3],86 % of control
O=C(/C=C/c1ccc(Cl)c(Cl)c1)c1ccccc1,T/C,[4],100 % of control
FC(F)(F)C1(C(F)(F)F)N=CC=CN1,T/C,"dose: 50.0 mg/kg/injection, schedule: Q01DX009 (ip), vehicle: distilled water + alcohol",101 % of control
same,T/C,"dose: 100.0 mg/kg/injection, schedule: Q01DX009 (ip), vehicle: distilled water + alcohol",95 % of control
CC(=O)N(O)C1CCCCC1,T/C,[5],101 % of control
same,T/C,[6],112 % of control
same,T/C,[7],101 % of control
same,T/C,[8],97 % of control
same,T/C,[4],103 % of control
same,T/C,[9],100 % of control
O=C(OCC1OC(n2ccc(=S)[nH]c2=O)C(OC(=O)c2ccccc2)C1OC(=O)c1ccccc1)c1ccccc1 (stereo not given),T/C,"dose: 12.5 mg/kg/injection, schedule: Q01DX005 (ip), vehicle: saline with Tween-80",102 % of control
same,T/C,"dose: 25.0 mg/kg/injection, schedule: Q01DX005 (ip), vehicle: saline with Tween-80",91 % of control
same,T/C,[10],91 % of control and 95 % of control
same,T/C,[11],87 % of control
Nc1nnn(CCCl)n1,T/C,"dose: 100.0 mg/kg/injection, schedule: Q01DX001 (ip), vehicle: Klucel (hydroxypropylcellulose) (HPC)",88 % of control
same,T/C,"dose: 200.0 mg/kg/injection, schedule: Q01DX001 (ip), vehicle: Klucel (hydroxypropylcellulose) (HPC)",88 % of control
CO/N=C1/OC(=O)OCC1(c1ccccc1)c1ccccc1,T/C,[10],100 % of control
same,T/C,"dose: 100.0 mg/kg/injection, schedule: Q01DX005 (ip), vehicle: saline with Tween-80",104 % of control
same,T/C,[11],100 % of control
CC(=O)[C@]1(O)Cc2c(O)c3c(c(O)c2[C@@H](OC2CC(NC(=O)C(F)(F)F)C(O)C(C)O2)C1)C(=O)c1c(O)cccc1C3=O (stereo not given in full),T/C,"dose: 12.5 mg/kg/injection, schedule: Q04DX003 (ip), vehicle: water",96 % of control
same,T/C,"dose: 25.0 mg/kg/injection, schedule: Q04DX003 (ip), vehicle: water",118 % of control
same,T/C,"dose: 100.0 mg/kg/injection, schedule: Q04DX003 (ip), vehicle: water",118 % of control
same,T/C,"dose: 200.0 mg/kg/injection, schedule: Q04DX003 (ip), vehicle: water",214 % of control
Clc1cc(Cl)c2n[se]nc2n1,T/C,"dose: 25.0 mg/kg/injection, schedule: Q04DX002 (ip), vehicle: saline",100 % of control
same,T/C,"dose: 50.0 mg/kg/injection, schedule: Q04DX002 (ip), vehicle: saline",106 % of control
same,T/C,"dose: 100.0 mg/kg/injection, schedule: Q04DX002 (ip), vehicle: saline",116 % of control and 123 % of control
CCc1[nH]nc(-c2n[nH]c(CC)c2C)c1C,T/C,"dose: 60.0 mg/kg/injection, schedule: Q01DX005 (ip), vehicle: saline",100 % of control
same,T/C,"dose: 120.0 mg/kg/injection, schedule: Q01DX005 (ip), vehicle: saline",102 % of control
same,T/C,"dose: 240.0 mg/kg/injection, schedule: Q01DX005 (ip), vehicle: saline",98 % of control
CN(C)c1nc(N)nc(N)n1,T/C,"dose: 6.25 mg/kg/injection, schedule: Q01DX009 (ip), vehicle: Klucel (hydroxypropylcellulose) (HPC)",100 % of control
same,T/C,"dose: 12.5 mg/kg/injection, schedule: Q01DX009 (ip), vehicle: Klucel (hydroxypropylcellulose) (HPC)",101 % of control and 115 % of control
same,T/C,[12],99 % of control and 106 % of control
same,T/C,[1],100 % of control and 107 % of control
same,T/C,[2],100 % of control
same,T/C,[3],105 % of control
CCCNc1nc2c(s1)c1c(O)c3c(O)c(C)c4c(c32)C(=O)C(C)(O/C=C\C(OC)C(C)C(OC(C)=O)C(C)C(O)C(C)C(O)C(C)/C=C/C=C(/C)C(=O)N1)O4 (stereo not given),T/C,[12],92 % of control
same,T/C,[1],107 % of control
same,T/C,[2],99 % of control
same,T/C,[3],100 % of control
CCOC(=O)Cn1ccnc1[N+](=O)[O-],T/C,"dose: 12.5 mg/kg/injection, schedule: Q01DX009 (ip), vehicle: distilled water + Tween-80",102 % of control
same,T/C,"dose: 25.0 mg/kg/injection, schedule: Q01DX009 (ip), vehicle: distilled water + Tween-80",97 % of control
same,T/C,"dose: 50.0 mg/kg/injection, schedule: Q01DX009 (ip), vehicle: distilled water + Tween-80",100 % of control
same,T/C,"dose: 100.0 mg/kg/injection, schedule: Q01DX009 (ip), vehicle: distilled water + Tween-80",102 % of control
same,T/C,"dose: 200.0 mg/kg/injection, schedule: Q01DX009 (ip), vehicle: distilled water + Tween-80",109 % of control
COC1CCC(OC2CC(C3(C)CCC4(CC(O)C(C)C(C(C)/C=C(\C)C(=O)C(C)CC(C)C(=O)O)O4)O3)OC3(OC(C4OC(O)(CO)C(C)CC4C)CC3C)C2C)OC1C (stereo not given),T/C,"dose: 12.5 micrograms/kg/injection, schedule: Q01DX009 (ip), vehicle: suspension in saline",106 % of control
same,T/C,"dose: 25.0 micrograms/kg/injection, schedule: Q01DX009 (ip), vehicle: suspension in saline",108 % of control
same,T/C,"dose: 37.5 micrograms/kg/injection, schedule: Q01DX009 (ip), vehicle: suspension in saline",114 % of control
same,T/C,"dose: 50.0 micrograms/kg/injection, schedule: Q01DX009 (ip), vehicle: suspension in saline",108 % of control
same,T/C,"dose: 75.0 micrograms/kg/injection, schedule: Q01DX009 (ip), vehicle: suspension in saline",109 % of control
same,T/C,"dose: 100.0 micrograms/kg/injection, schedule: Q01DX009 (ip), vehicle: suspension in saline",100 % of control
same,T/C,"dose: 150.0 micrograms/kg/injection, schedule: Q01DX009 (ip), vehicle: suspension in saline",100 % of control
same,T/C,"dose: 200.0 micrograms/kg/injection, schedule: Q01DX009 (ip), vehicle: suspension in saline",107 % of control
same,T/C,"dose: 400.0 micrograms/kg/injection, schedule: Q01DX009 (ip), vehicle: suspension in saline",104 % of control
O=C(Nc1cccc(Cl)c1Cl)Oc1ccc(Cl)cc1C(=O)c1ccccc1,T/C,[6],94 % of control
same,T/C,[8],89 % of control
same,T/C,[9],99 % of control
Cc1cc(Br)c(NC(=O)c2c(-c3c(Cl)cccc3Cl)noc2C)c(Br)c1,T/C,"dose: 60.0 mg/kg/injection, schedule: Q01DX005 (ip), vehicle: Klucel (hydroxypropylcellulose) (HPC)",88 % of control
same,T/C,"dose: 120.0 mg/kg/injection, schedule: Q01DX005 (ip), vehicle: Klucel (hydroxypropylcellulose) (HPC)",95 % of control
ClC1CCCC[N-]1.ClC1CCCC[N-]1.[Cl][Pt+2][Cl] (stereo not given),T/C,"dose: 12.5 mg/kg/injection, schedule: Q01DX009 (ip), vehicle: saline with Tween-80",109 % of control
same,T/C,[13],103 % of control
same,T/C,[5],101 % of control
same,T/C,[7],97 % of control
same,T/C,[4],99 % of control
N#Cc1c(N)sc(=S)c2c1CCCC2,T/C,[6],104 % of control
same,T/C,[8],95 % of control
same,T/C,[9],95 % of control
C[n+]1ccc(NC(=O)c2ccc(NC(=O)c3cccc(C(=O)Nc4ccc(C(=O)Nc5cc[n+](C)cc5)cc4)c3)cc2)cc1,T/C,"dose: 6.25 mg/kg/injection, schedule: Q04DX003 (ip), vehicle: saline with Tween-80",112 % of control
same,T/C,"dose: 12.5 mg/kg/injection, schedule: Q04DX003 (ip), vehicle: saline with Tween-80",120 % of control
same,T/C,[13],159 % of control
same,T/C,[5],195 % of control
same,T/C,"dose: 50.0 mg/kg/injection, schedule: Q04DX003 (ip), vehicle: saline with Tween-80",154 % of control
same,T/C,"dose: 66.0 mg/kg/injection, schedule: Q04DX003 (ip), vehicle: saline with Tween-80",170 % of control
CC1OC(=O)C(=O)/C1=C1/CC(C)(C)N(c2ccccc2)N1 (stereo not given),T/C,[13],104 % of control and 91 % of control
same,T/C,[5],107 % of control and 108 % of control and 90 % of control
same,T/C,[7],90 % of control and 96 % of control
same,T/C,[4],88 % of control and 92 % of control
